# Measurements from ChEMBL document CHEMBL3885861, “Open TG-GATES”.
# Species: Rattus norvegicus
# Experiment: Open TG-GATES - Regimen: Single
# Type: toxicity, organism-based, Sprague-Dawley
# Design: regimen Single, gender Male, age 6 weeks
# Details: in vivo, po, route gavage; for gamma-GTP / ALP / ALT / AST / BUN / CRE / Ca / Cl / DBIL / GLC / IP / K / LDH / Na / PL / RALB / TBIL / TC / TG / TP: tissue Plasma; for Bas / Eos / Fbg / Hb / Ht / Lym / MCHC / MCV / Mono / Neu / PT / Plat / RBC / Ret / WBC / APTT: tissue Blood
# [1] = 300 mg/kg, 3 h, dose level Middle
# [2] = 300 mg/kg, 6 h, dose level Middle
# [3] = 300 mg/kg, 9 h, dose level Middle
# [4] = 300 mg/kg, 24 h, dose level Middle
# [5] = 1000 mg/kg, 3 h, dose level High
# [6] = 1000 mg/kg, 6 h, dose level High
# [7] = 1000 mg/kg, 9 h, dose level High
# [8] = 1000 mg/kg, 24 h, dose level High
smiles,measurement,setting,value
O=C(O)c1cccnc1 [NIACIN],gamma-GTP,"100 mg/kg, 24 h, dose level Low",1 IU/L
same,Bas,[1],0%
same,Eos,[1],1%
same,Fbg,[1],304.8 mg/dL
same,Hb,[1],13.1 g/dL
same,Ht,[1],39.9%
same,Lym,[1],79.2%
same,MCHC,[1],32.9%
same,MCV,[1],64.5 fL
same,Mono,[1],2.4%
same,Neu,[1],16.2%
same,PT,[1],16 s
same,Plat,[1],118.4 x10_4/uL
same,RBC,[1],620.8 x10_4/ul
same,Ret,[1],8.5%
same,WBC,[1],82.2 x10_2/uL
same,ALP,[1],1554 IU/L
same,ALT,[1],38.4 IU/L
same,AST,[1],73 IU/L
same,BUN,[1],13.2 mg/dL
same,CRE,[1],0.2 mg/dL
same,Ca,[1],10.8 mg/dL
same,Cl,[1],105.6 meq/L
same,DBIL,[1],0.002 mg/dL
same,GLC,[1],179.4 mg/dL
same,IP,[1],9.3 mg/dL
same,K,[1],3.7 meq/L
same,LDH,[1],184 IU/L
same,Na,[1],140.2 meq/L
same,PL,[1],120.6 mg/dL
same,RALB,[1],3 g/dL
same,TBIL,[1],0 mg/dL
same,TC,[1],73.6 mg/dL
same,TG,[1],28.8 mg/dL
same,TP,[1],5.6 g/dL
same,gamma-GTP,[1],1.2 IU/L
same,Bas,[2],0%
same,Eos,[2],0.8%
same,Fbg,[2],329.8 mg/dL
same,Hb,[2],13.6 g/dL
same,Ht,[2],41.4%
same,Lym,[2],73%
same,MCHC,[2],32.9%
same,MCV,[2],62.9 fL
same,Mono,[2],2.4%
same,Neu,[2],23%
same,PT,[2],16.6 s
same,Plat,[2],119.6 x10_4/uL
same,RBC,[2],657.8 x10_4/ul
same,Ret,[2],8.4%
same,WBC,[2],82.7 x10_2/uL
same,ALP,[2],1294 IU/L
same,ALT,[2],40.2 IU/L
same,AST,[2],71.4 IU/L
same,BUN,[2],12.6 mg/dL
same,CRE,[2],0.1 mg/dL
same,Ca,[2],10.6 mg/dL
same,Cl,[2],106.4 meq/L
same,DBIL,[2],0.002 mg/dL
same,GLC,[2],182.4 mg/dL
same,IP,[2],9.6 mg/dL
same,K,[2],3.7 meq/L
same,LDH,[2],211.8 IU/L
same,Na,[2],140.6 meq/L
same,PL,[2],125.8 mg/dL
same,RALB,[2],3 g/dL
same,TBIL,[2],0.002 mg/dL
same,TC,[2],76.2 mg/dL
same,TG,[2],31 mg/dL
same,TP,[2],5.6 g/dL
same,gamma-GTP,[2],1.4 IU/L
same,APTT,[3],22.4 s
same,Bas,[3],0%
same,Eos,[3],0.8%
same,Fbg,[3],304.4 mg/dL
same,Hb,[3],13.1 g/dL
same,Ht,[3],39.5%
same,Lym,[3],71.8%
same,MCHC,[3],33.3%
same,MCV,[3],62.6 fL
same,Mono,[3],2.2%
same,Plat,[3],114.7 x10_4/uL
same,RBC,[3],631.4 x10_4/ul
same,Ret,[3],8.5%
same,WBC,[3],72.8 x10_2/uL
same,ALP,[3],1319 IU/L
same,ALT,[3],38.4 IU/L
same,AST,[3],72.2 IU/L
same,CRE,[3],0.2 mg/dL
same,Ca,[3],10.9 mg/dL
same,Cl,[3],105.2 meq/L
same,DBIL,[3],0.006 mg/dL
same,GLC,[3],176 mg/dL
same,IP,[3],9.1 mg/dL
same,K,[3],4.2 meq/L
same,LDH,[3],169.8 IU/L
same,Na,[3],140.8 meq/L
same,PL,[3],124.8 mg/dL
same,RALB,[3],2.8 g/dL
same,TBIL,[3],0.004 mg/dL
same,TC,[3],70.2 mg/dL
same,TG,[3],50.4 mg/dL
same,TP,[3],5.3 g/dL
same,gamma-GTP,[3],1.6 IU/L
same,Bas,[4],0%
same,Eos,[4],1%
same,Fbg,[4],343 mg/dL
same,Hb,[4],13.7 g/dL
same,Ht,[4],40%
same,Lym,[4],78.4%
same,MCHC,[4],34.2%
same,MCV,[4],62.5 fL
same,Mono,[4],2.6%
same,Neu,[4],16.6%
same,PT,[4],16 s
same,Plat,[4],120.8 x10_4/uL
same,RBC,[4],640 x10_4/ul
same,Ret,[4],6.4%
same,WBC,[4],98.1 x10_2/uL
same,ALP,[4],1858 IU/L
same,AST,[4],70.4 IU/L
same,BUN,[4],14 mg/dL
same,CRE,[4],0.1 mg/dL
same,Ca,[4],10.7 mg/dL
same,Cl,[4],104.4 meq/L
same,DBIL,[4],0 mg/dL
same,GLC,[4],192 mg/dL
same,IP,[4],7.9 mg/dL
same,K,[4],4.1 meq/L
same,LDH,[4],172.2 IU/L
same,Na,[4],139.8 meq/L
same,PL,[4],156.8 mg/dL
same,RALB,[4],3 g/dL
same,TBIL,[4],0 mg/dL
same,TC,[4],79.4 mg/dL
same,TG,[4],134.4 mg/dL
same,TP,[4],5.6 g/dL
same,gamma-GTP,[4],1.4 IU/L
same,Bas,[5],0%
same,Eos,[5],1.2%
same,Fbg,[5],303 mg/dL
same,Hb,[5],13.2 g/dL
same,Lym,[5],75.2%
same,MCHC,[5],32.8%
same,MCV,[5],62.8 fL
same,Mono,[5],2.4%
same,Neu,[5],20%
same,PT,[5],16.2 s
same,Plat,[5],114.5 x10_4/uL
same,RBC,[5],642.4 x10_4/ul
same,Ret,[5],8.7%
same,WBC,[5],70.3 x10_2/uL
same,ALP,[5],1421 IU/L
same,ALT,[5],43.6 IU/L
same,AST,[5],79.4 IU/L
same,BUN,[5],12.2 mg/dL
same,CRE,[5],0.2 mg/dL
same,Ca,[5],10.6 mg/dL
same,Cl,[5],106.2 meq/L
same,DBIL,[5],0 mg/dL
same,GLC,[5],187 mg/dL
same,IP,[5],9.4 mg/dL
same,K,[5],3.6 meq/L
same,LDH,[5],226.4 IU/L
same,Na,[5],140.8 meq/L
same,PL,[5],118.2 mg/dL
same,RALB,[5],3.1 g/dL
same,TBIL,[5],0 mg/dL
same,TC,[5],72.4 mg/dL
same,TG,[5],24.4 mg/dL
same,TP,[5],5.6 g/dL
same,gamma-GTP,[5],1.2 IU/L
same,Bas,[6],0%
same,Eos,[6],1%
same,Fbg,[6],311 mg/dL
same,Hb,[6],13.6 g/dL
same,Ht,[6],41.3%
same,Lym,[6],75.8%
same,MCHC,[6],32.8%
same,MCV,[6],64.6 fL
same,Mono,[6],2%
same,Neu,[6],20.4%
same,PT,[6],16.4 s
same,Plat,[6],121.3 x10_4/uL
same,RBC,[6],641.2 x10_4/ul
same,Ret,[6],8.2%
same,WBC,[6],74.6 x10_2/uL
same,ALP,[6],1566.4 IU/L
same,ALT,[6],35 IU/L
same,AST,[6],74.6 IU/L
same,BUN,[6],12.4 mg/dL
same,CRE,[6],0.2 mg/dL
same,Ca,[6],10.6 mg/dL
same,Cl,[6],107.6 meq/L
same,DBIL,[6],0 mg/dL
same,GLC,[6],181 mg/dL
same,IP,[6],9.2 mg/dL
same,K,[6],3.8 meq/L
same,LDH,[6],210.8 IU/L
same,Na,[6],139.6 meq/L
same,PL,[6],115.2 mg/dL
same,RALB,[6],3 g/dL
same,TBIL,[6],0 mg/dL
same,TC,[6],69.6 mg/dL
same,TG,[6],27.8 mg/dL
same,TP,[6],5.6 g/dL
same,gamma-GTP,[6],1.4 IU/L
same,APTT,[7],22.8 s
same,Bas,[7],0%
same,Eos,[7],1%
same,Fbg,[7],324 mg/dL
same,Hb,[7],13.3 g/dL
same,Lym,[7],67%
same,MCHC,[7],33%
same,MCV,[7],62 fL
same,Mono,[7],1.8%
same,Neu,[7],29.8%
same,PT,[7],15.6 s
same,Plat,[7],116.6 x10_4/uL
same,RBC,[7],651 x10_4/ul
same,Ret,[7],8%
same,WBC,[7],71.1 x10_2/uL
same,ALP,[7],1673.4 IU/L
same,ALT,[7],41.2 IU/L
same,AST,[7],75.2 IU/L
same,BUN,[7],13 mg/dL
same,CRE,[7],0.2 mg/dL
same,Ca,[7],10.8 mg/dL
same,Cl,[7],106.8 meq/L
same,DBIL,[7],0.004 mg/dL
same,GLC,[7],171.2 mg/dL
same,IP,[7],9.4 mg/dL
same,K,[7],3.9 meq/L
same,LDH,[7],198.2 IU/L
same,Na,[7],139.8 meq/L
same,PL,[7],101.2 mg/dL
same,RALB,[7],3.1 g/dL
same,TBIL,[7],0.002 mg/dL
same,TC,[7],60.6 mg/dL
same,TG,[7],17.2 mg/dL
same,TP,[7],5.5 g/dL
same,gamma-GTP,[7],1.2 IU/L
same,Bas,[8],0%
same,Eos,[8],1%
same,Fbg,[8],319 mg/dL
same,Hb,[8],13.3 g/dL
same,Ht,[8],39.7%
same,Lym,[8],71.4%
same,MCHC,[8],33.4%
same,MCV,[8],63.3 fL
same,Mono,[8],3%
same,Neu,[8],23.2%
same,PT,[8],15.9 s
same,Plat,[8],117.3 x10_4/uL
same,RBC,[8],627 x10_4/ul
same,Ret,[8],7.2%
same,WBC,[8],92.1 x10_2/uL
same,ALP,[8],1735.4 IU/L
same,ALT,[8],53 IU/L
same,AST,[8],75.4 IU/L
same,BUN,[8],16.6 mg/dL
same,CRE,[8],0.2 mg/dL
same,Ca,[8],10.5 mg/dL
same,Cl,[8],104.4 meq/L
same,DBIL,[8],0 mg/dL
same,GLC,[8],188.6 mg/dL
same,IP,[8],8.1 mg/dL
same,K,[8],4.1 meq/L
same,LDH,[8],174.8 IU/L
same,Na,[8],139.6 meq/L
same,PL,[8],144.2 mg/dL
same,RALB,[8],3 g/dL
same,TBIL,[8],0 mg/dL
same,TC,[8],70.6 mg/dL
same,TG,[8],119.2 mg/dL
same,TP,[8],5.4 g/dL
same,gamma-GTP,[8],1 IU/L
